Data: patent US20190002935A1, “BACTERIAL CELLS WITH IMPROVED TOLERANCE TO POLYAMINES” (DANMARKS TEKNISKE UNIVERSITET, priority 2016, published 2019)

Experiments:
[1] = test system: E. coli K-12 MG1655; assay: Growth Profiler growth of K-12 MG1655 in a range of concentrations of other polyamines and amine-containing compounds; conditions: for screening concentration for which wild-type cells could achieve a growth rate of 0.2-0.3 h^−1: K-12 MG1655, uninhibited growth 0.7-0.9 h^−1 in M9 glucose minimal medium; for tlag (lag time) / μ (growth rate): Growth Profiler
Text: For data obtained with the Growth Profiler, improved image analysis was additionally implemented to obtain the updated growth parameters. In the Tables below, for values labeled in columns with “(1)”, integrated pixel values (which were later converted to OD600 using a calibration curve) were obtained directly from image analysis capabilities in the Growth Profiler software. In the Tables below, for values labeled in columns with “(2)”, a new algorithm was implemented that automatically detected the pixel integration region in each well in each image by locating the darkest pixels in each well. These values were converted to OD600 with a calibration run in the same manner. The new algorithm provided for an improved accuracy in determining the growth rate, since it eliminated a slowly oscillating frequency that was sometimes observed in the original data, potentially related to the practical setup when scanning the plates.
Additionally, each evolved isolate was tested for cross-tolerance toward other polyamines and amine-containing compounds of biotechnological interest. First, K-12 MG1655 was tested in the Growth Profiler screening format for growth in the presence of a range of concentrations of each compound: 1,3-diaminopropane, 1,5-diaminopentane (cadaverine), spermidine, citrulline, ethylenediamine, carnitine, and ornithine. Variable concentrations of these compounds elicited growth inhibition in E. coli K-12 MG1655 (Table 36). […] The compounds citrulline and ornithine are polyamine-containing amino acids. […] Among the only exceptions were PUTR7-1 in citrulline and PUTR5-1 and PUTR6-2 in ornithine.

[2] = test system: Escherichia coli K-12 MG1655; assay: Screening for tolerance in wild-type cells (Biolector, varying concentrations of putrescine or HMDA); type: cell-based; conditions: for mean (1) tlag (lag time) / mean (1) μ (growth rate) / mean (2) tlag (lag time) / mean (2) μ (growth rate): K-12 MG1655; for mean (1) tlag (lag time) / mean (1) μ (growth rate): software version (1); for mean (2) tlag (lag time) / mean (2) μ (growth rate): software version (2); for maximum measured concentration at which K-12 MG1655 can grow: M9+1% glucose
Procedure: Escherichia coli K-12 MG1655 was grown overnight in M9 minimal medium+1% glucose and subcultured the following morning to an initial OD600 of 0.05 in M9+1% glucose. Cells were grown to mid-exponential phase (OD600 0.7-1.0) and were back-diluted with fresh medium to an OD600 of 0.7. […] The culture volume in each well was 1.4 mL.
For data obtained with the Biolector microbioreactor system, self-baselined growth series were imported directly into a custom software platform that automatically detects growth phases and exports growth rates and lag times.

[3] = K-12 MG1655, 10 g/L of the compound
[4] = K-12 MG1655, 20 g/L of the compound
[5] = K-12 MG1655, 25 g/L of the compound
[6] = K-12 MG1655, 30 g/L of the compound
[7] = K-12 MG1655, 40 g/L of the compound
[8] = K-12 MG1655, 50 g/L of the compound
[9] = K-12 MG1655, 5 g/L of the compound
[10] = K-12 MG1655, 45 g/L of the compound
[11] = K-12 MG1655, 60 g/L of the compound
[12] = K-12 MG1655, 75 g/L of the compound

NCCCN [1,3-diaminopropane, propane-1,3-diamine]
screening concentration for which wild-type cells could achieve a growth rate of 0.2-0.3 h^−1 [1]: 35 g/L

N=C(N)NCCCCN [Agmatine, 1-amino-4-guanidinobutane]
tlag (lag time) [1, 3]: 5.3 h
μ (growth rate) [1, 3]: 0.700 h⁻¹
tlag (lag time) [1, 4]: 5.6 h
μ (growth rate) [1, 4]: 0.630 h⁻¹
tlag (lag time) [1, 5]: 6.1 h
μ (growth rate) [1, 5]: 0.648 h⁻¹
tlag (lag time) [1, 6]: 6.3 h
μ (growth rate) [1, 6]: 0.610 h⁻¹
tlag (lag time) [1, 7]: 7.0 h
μ (growth rate) [1, 7]: 0.632 h⁻¹
tlag (lag time) [1, 8]: 7.9 h
μ (growth rate) [1, 8]: 0.523 h⁻¹
concentration up to which the compound was non-toxic ([1]; K-12 MG1655, Growth Profiler): up to 50 g/L

NCCCCCCN [HMDA, hexane-1,6-diamine]
mean (1) tlag (lag time) ([2]; 10 g/L): 1.3 h
mean (1) μ (growth rate) ([2]; 10 g/L): 0.806 h⁻¹
mean (2) tlag (lag time) ([2]; 10 g/L): 0.8 h
mean (2) μ (growth rate) ([2]; 10 g/L): 0.605 h⁻¹
mean (1) tlag (lag time) ([2]; 20 g/L): 1.4 h
mean (1) μ (growth rate) ([2]; 20 g/L): 0.601 h⁻¹
mean (2) tlag (lag time) ([2]; 20 g/L): 0.3 h
mean (2) μ (growth rate) ([2]; 20 g/L): 0.394 h⁻¹
mean (1) tlag (lag time) ([2]; 30 g/L): 1.7 h
mean (1) μ (growth rate) ([2]; 30 g/L): 0.475 h⁻¹
mean (2) tlag (lag time) ([2]; 30 g/L): 0.0 h
mean (2) μ (growth rate) ([2]; 30 g/L): 0.241 h⁻¹
mean (1) tlag (lag time) ([2]; 40 g/L): 2.6 h
mean (1) μ (growth rate) ([2]; 40 g/L): 0.216 h⁻¹
mean (2) tlag (lag time) ([2]; 40 g/L): 2.3 h
mean (2) μ (growth rate) ([2]; 40 g/L): 0.136 h⁻¹
mean (1) μ (growth rate) ([2]; 50 g/L): 0.000 h⁻¹
mean (2) μ (growth rate) ([2]; 50 g/L): 0.000 h⁻¹
mean (1) μ (growth rate) ([2]; 75 g/L): 0.000 h⁻¹
mean (2) μ (growth rate) ([2]; 75 g/L): 0.000 h⁻¹
mean (1) μ (growth rate) ([2]; 100 g/L): 0.000 h⁻¹
mean (2) μ (growth rate) ([2]; 100 g/L): 0.000 h⁻¹
concentration at which zero/no growth was detected ([2]; K-12 MG1655, M9+1% glucose, Biolector): 50 g/L
maximum measured concentration at which K-12 MG1655 can grow ([2]; Biolector): 40 g/L

NCCCCCN [cadaverine, pentane-1,5-diamine]
screening concentration for which wild-type cells could achieve a growth rate of 0.2-0.3 h^−1 [1]: 35 g/L

C[N+](C)(C)CC(O)CC(=O)[O-] (centres unmarked) [carnitine]
tlag (lag time) [1, 9]: 6.6 h
μ (growth rate) [1, 9]: 0.786 h⁻¹
tlag (lag time) [1, 3]: 7.5 h
μ (growth rate) [1, 3]: 0.545 h⁻¹
μ (growth rate) [1, 4]: 0.000 h⁻¹

NC(=O)NCCC[C@H](N)C(=O)O [citrulline]
tlag (lag time) [1, 5]: 6.7 h
μ (growth rate) [1, 5]: 0.759 h⁻¹
tlag (lag time) [1, 6]: 7.0 h
μ (growth rate) [1, 6]: 0.702 h⁻¹
tlag (lag time) [1, 7]: 7.5 h
μ (growth rate) [1, 7]: 0.677 h⁻¹
tlag (lag time) [1, 10]: 8.6 h
μ (growth rate) [1, 10]: 0.508 h⁻¹
tlag (lag time) [1, 8]: 9.2 h
μ (growth rate) [1, 8]: 0.538 h⁻¹
tlag (lag time) [1, 11]: 10.4 h
μ (growth rate) [1, 11]: 0.437 h⁻¹
tlag (lag time) [1, 12]: 12.4 h
μ (growth rate) [1, 12]: 0.355 h⁻¹
screening concentration for which wild-type cells could achieve a growth rate of 0.2-0.3 h^−1 [1]: 80 g/L

NCCN [ethylenediamine, 1,2-diaminoethane]
tlag (lag time) [1, 9]: 7.0 h
μ (growth rate) [1, 9]: 0.689 h⁻¹
tlag (lag time) [1, 3]: 8.5 h
μ (growth rate) [1, 3]: 0.614 h⁻¹
tlag (lag time) [1, 4]: 32.9 h
μ (growth rate) [1, 4]: 0.152 h⁻¹
μ (growth rate) [1, 5]: 0.000 h⁻¹
screening concentration for which wild-type cells could achieve a growth rate of 0.2-0.3 h^−1 [1]: 18 g/L

NCCC[C@H](N)C(=O)O [ornithine]
tlag (lag time) [1, 9]: 8.2 h
μ (growth rate) [1, 9]: 0.439 h⁻¹
tlag (lag time) [1, 3]: 17.1 h
μ (growth rate) [1, 3]: 0.260 h⁻¹
tlag (lag time) [1, 4]: 44.2 h
μ (growth rate) [1, 4]: 0.214 h⁻¹
tlag (lag time) [1, 5]: 53.2 h
μ (growth rate) [1, 5]: 0.150 h⁻¹
tlag (lag time) [1, 6]: 82.6 h
μ (growth rate) [1, 6]: 0.076 h⁻¹
μ (growth rate) [1, 7]: 0.000 h⁻¹
screening concentration for which wild-type cells could achieve a growth rate of 0.2-0.3 h^−1 [1]: 10 g/L

NCCCCN [putrescine, butane-1,4-diamine]
mean (1) tlag (lag time) ([2]; 10 g/L): 1.4 h
mean (1) μ (growth rate) ([2]; 10 g/L): 0.698 h⁻¹
mean (2) tlag (lag time) ([2]; 10 g/L): 1.0 h
mean (2) μ (growth rate) ([2]; 10 g/L): 0.538 h⁻¹
mean (1) tlag (lag time) ([2]; 20 g/L): 2.2 h
mean (1) μ (growth rate) ([2]; 20 g/L): 0.577 h⁻¹
mean (2) tlag (lag time) ([2]; 20 g/L): 1.5 h
mean (2) μ (growth rate) ([2]; 20 g/L): 0.392 h⁻¹
mean (1) tlag (lag time) ([2]; 30 g/L): 3.4 h
mean (1) μ (growth rate) ([2]; 30 g/L): 0.350 h⁻¹
mean (2) tlag (lag time) ([2]; 30 g/L): 6.2 h
mean (2) μ (growth rate) ([2]; 30 g/L): 0.317 h⁻¹
mean (1) tlag (lag time) ([2]; 40 g/L): 12.3 h
mean (1) μ (growth rate) ([2]; 40 g/L): 0.108 h⁻¹
mean (2) tlag (lag time) ([2]; 40 g/L): 25.8 h
mean (2) μ (growth rate) ([2]; 40 g/L): 0.148 h⁻¹
mean (1) tlag (lag time) ([2]; 50 g/L): 19.8 h
mean (1) μ (growth rate) ([2]; 50 g/L): 0.023 h⁻¹
mean (2) μ (growth rate) ([2]; 50 g/L): 0.000 h⁻¹
mean (1) μ (growth rate) ([2]; 75 g/L): 0.000 h⁻¹
mean (2) μ (growth rate) ([2]; 75 g/L): 0.000 h⁻¹
mean (1) μ (growth rate) ([2]; 100 g/L): 0.000 h⁻¹
mean (2) μ (growth rate) ([2]; 100 g/L): 0.000 h⁻¹
maximum measured concentration at which K-12 MG1655 can grow ([2]; Biolector): 40 g/L

NCCCCNCCCN [spermidine, N-(3-aminopropyl)-1,4-diaminobutane]
screening concentration for which wild-type cells could achieve a growth rate of 0.2-0.3 h^−1 [1]: 40 g/L
